Assay results taken from the NIST ThermoML archive (doi:10.1021/je800463k).

Experiment: mn = molality of the nth substance listed, in mol/kg
Details: 101 kPa, Liquid; for mass density: Pycnometric method; for electrical conductivity: Frequency=0.001 MHz, Alternating current cell with electrodes; for speed of sound: Frequency=2 MHz

O=[N+]([O-])[O-].O=[N+]([O-])[O-].[Mg+2] [magnesium nitrate] + CO
Details	electrical conductivity [S/m]	mass density [kg/m3]	speed of sound [m/s]	viscosity [mPa·s]
301.25 K, m1 = 0.4024	–	827.04	–	–
301.3 K, m1 = 0.0082	–	785.69	–	–
301.4 K, m1 = 0.2776	–	814.59	–	–
301.4 K, m1 = 1.71	–	952.09	–	–
302.05 K, m1 = 0.0545	–	790.26	–	–
302.2 K, m1 = 0.4555	–	830.9	–	–
302.25 K, m1 = 0.782	–	868.46	–	–
302.45 K, m1 = 0.1047	–	796.51	–	–
302.55 K, m1 = 1.004	–	883.47	–	–
302.7 K, m1 = 0.6276	–	848.25	–	–
302.7 K, m1 = 1.259	–	910.86	–	–
302.85 K, m1 = 1.875	–	961.69	–	–
303.15 K, m1 = 0.0082	0.1462	783.99	1091.9	0.5215
303.15 K, m1 = 0.0545	0.4108	–	1098.1	0.5545
303.15 K, m1 = 0.0667	0.4481	–	1096.9	0.5716
303.15 K, m1 = 0.1047	0.5889	–	1102.5	0.5909
303.15 K, m1 = 0.2776	1.123	–	1121.5	0.6836
303.15 K, m1 = 0.4024	1.41	–	1132.5	0.7943
303.15 K, m1 = 0.4555	1.489	–	1139.1	0.8264
303.15 K, m1 = 0.6276	1.775	–	1155.5	1.05
303.15 K, m1 = 0.782	1.979	–	1172.9	1.177
303.15 K, m1 = 0.881	2.037	–	1179.3	1.184
303.15 K, m1 = 0.9116	2.054	–	1182.3	1.245
303.15 K, m1 = 1.004	2.136	–	1196.9	1.354
303.15 K, m1 = 1.259	2.213	–	1219.1	1.875
303.15 K, m1 = 1.492	2.223	–	1243	2.267
303.15 K, m1 = 1.71	2.246	–	1263.7	2.73
303.15 K, m1 = 1.875	2.217	–	1272.7	3.138
303.25 K, m1 = 0.4024	–	825.26	–	–
303.4 K, m1 = 0.2776	–	812.83	–	–
303.4 K, m1 = 1.492	–	932.03	–	–
303.75 K, m1 = 0.0545	–	788.57	–	–
303.85 K, m1 = 0.881	–	868.76	–	–
304 K, m1 = 0.0082	–	782.31	–	–
304.1 K, m1 = 0.782	–	866.62	–	–
304.2 K, m1 = 0.4555	–	829.11	–	–
304.25 K, m1 = 0.1047	–	794.8	–	–
304.35 K, m1 = 0.0667	–	789.8	–	–
304.65 K, m1 = 0.6276	–	846.53	–	–
304.65 K, m1 = 1.004	–	881.56	–	–
304.8 K, m1 = 1.259	–	908.91	–	–
304.9 K, m1 = 1.71	–	949.01	–	–
304.95 K, m1 = 0.0082	–	780.67	–	–
305.05 K, m1 = 0.4024	–	823.53	–	–
305.15 K, m1 = 0.0667	–	789.04	–	–
305.25 K, m1 = 0.2776	–	811.08	–	–
305.55 K, m1 = 0.0545	–	786.97	–	–
306 K, m1 = 1.875	–	958.63	–	–
306.6 K, m1 = 0.0082	–	778.26	–	–
306.7 K, m1 = 1.492	–	929.13	–	–
306.75 K, m1 = 1.004	–	879.67	–	–
306.8 K, m1 = 0.4024	–	821.82	–	–
306.8 K, m1 = 0.881	–	866.06	–	–
306.85 K, m1 = 0.0667	–	787.33	–	–
306.85 K, m1 = 0.1047	–	792.32	–	–
306.9 K, m1 = 1.259	–	907.07	–	–
306.95 K, m1 = 0.4555	–	826.52	–	–
307.1 K, m1 = 1.71	–	947.08	–	–
307.15 K, m1 = 0.2776	–	809.38	–	–
307.15 K, m1 = 0.782	–	863.84	–	–
307.25 K, m1 = 0.0545	–	785.27	–	–
307.55 K, m1 = 0.6276	–	843.81	–	–
308.15 K, m1 = 0.0082	0.1518	–	1075.4	0.486
308.15 K, m1 = 0.0545	0.4242	–	1082.1	0.5169
308.15 K, m1 = 0.0667	0.4649	–	1083.3	0.5321
308.15 K, m1 = 0.1047	0.6114	–	1086	0.5501
308.15 K, m1 = 0.2776	1.172	–	1106.2	0.6334
308.15 K, m1 = 0.4024	1.476	–	1116.1	0.7332
308.15 K, m1 = 0.4555	1.559	–	1122.4	0.7633
308.15 K, m1 = 0.6276	1.867	–	1139.5	0.9449
308.15 K, m1 = 0.782	2.089	–	1157.4	1.077
308.15 K, m1 = 0.881	2.154	–	1163.7	1.083
308.15 K, m1 = 0.9116	2.173	–	1165.8	1.135
308.15 K, m1 = 1.004	2.266	–	1180.7	1.233
308.15 K, m1 = 1.259	2.359	–	1200	1.694
308.15 K, m1 = 1.492	2.396	–	1227	2.044
308.15 K, m1 = 1.71	2.421	–	1247.8	2.433
308.15 K, m1 = 1.875	2.395	–	1256.6	2.765
308.35 K, m1 = 1.875	–	956.57	–	–
308.55 K, m1 = 0.0667	–	785.71	–	–
308.6 K, m1 = 0.4024	–	820.2	–	–
